These results are taken from US7851472B2, “Triazolophthalazines” (NYCOMED GmbH, priority 2004, dated 2010).

Entries after “also recorded” stand apart in the source; their conditions may differ. Ends that are not written are not given here.

Usually melting point stands for the temperature of the solid-liquid transition. As a reminder, the IC50 is the concentration that inhibits the measured activity by half.

Tested on in one data set: not given
Assay: not given
Settings: not given
On to `COc1ccc(-c2nnc3c4ccccc4c(Nc4ccc(N)cc4)nn23)cc1` [Compound 1, N-[3-(4-Methoxyphenyl)-[1,2,4]triazolo[3,4-a]phthalazin-6-yl]-benzene-1,4-diamine], for which the melting point was determined as 295 °C.
`COc1ccc(-c2nnc3c4ccccc4c(Nc4ccc(NC(=O)c5ccccc5)cc4)nn23)cc1` [Compound 33, N-{4-[3-(4-Methoxyphenyl)-[1,2,4]triazolo[3,4-a]phthalazin-6-ylamino]-phenyl}-benzamide]: the melting point was determined as 323 °C.
`COc1ccc(-c2nnc3c4ccccc4c(Nc4cccc(NC(C)=O)c4)nn23)cc1` [Compound 66, N-{3-[3-(4-Methoxyphenyl)-[1,2,4]triazolo[3,4-a]phthalazin-6-ylamino]-phenyl}-acetamide] gave a melting point of 295 °C.
In turn, `COc1ccc(-c2nnc3c4ccccc4c(Nc4cccc(C(N)=O)c4)nn23)cc1` [Compound 109, 3-[3-(4-Methoxyphenyl)-[1,2,4]triazolo[3,4-a]phthalazin-6-ylamino]-benzamide] returned a melting point of 296 °C.
`CNC(=O)c1cccc(Nc2nn3c(-c4ccc(OC)cc4)nnc3c3ccccc23)c1` [Compound 110, 3-[3-(4-Methoxyphenyl)-[1,2,4]triazolo[3,4-a]phthalazin-6-ylamino]-N-methylbenzamide] had a melting point of 316 °C.

The test system of a further data set is HUVEC monolayers. Put plainly: Inhibition of macromolecule (HRP) permeability of thrombin-stimulated HUVEC monolayers. To be noted: 10 μM Motapizone (PDE3) together with 1 μM RP73401 (PDE4), 1 U/ml thrombin. The class given is cell-based, human. As for the experimental part:
The procedure to measure macromolecule permeability of endothelial cell monolayers followed the method described by Langeler & van Hinsbergh (1988) with modifications. Human umbilical vein endothelial cells were isolated from umbilical cords according to standard procedures (Jaffe et al. 1973) and cultured in endothelial cell basal medium (EBM) supplemented with 2% FCS, 0.5 ng/ml VEGF, 10 ng/ml bFGF, 5 ng/ml EGF, 20 ng/ml Long R3 IGF-1, 0.2 μg/ml hydrocortisone, 1 μg/ml ascorbic acid, 22.5 μg/ml heparin, 50 μg/ml gentamicin, 50 ng/ml amphotericin B (EGM2 purchased from Promocell GmbH, Heidelberg, Germany). At confluency, cells were trypsinized and replated at 73000 cells per well on 3 μm polycarbonate filter Transwell inserts (Costar GmbH, Bodenheim, Germany) precoated with 10 μg cm^2 −1 Fibronectin (Sigma, Taufkirchen, Germany). HUVECs were cultured in EGM2 (100 μl in the upper wells and 600 μl in the lower wells) over four days prior the experiments and medium was changed every other day. At the day of the experiment culture medium was replaced by M199 with 1% human serum albumin. Endothelial cells were preincubated with cyclic nucleotide modifiers (the selective PDE3 inhibitor motapizone, the selective PDE4 inhibitor RP73401, the cGMP generators ANP or SNP and PDE2 inhibitors) for 15 min. HUVECs were then stimulated with Thrombin (1 U ml^−1) (Sigma, Taufkichen, Germany) and horsh radish peroxidase (5 μg/ml) (Sigma, Taufkirchen, Germany) as the macromolecule marker protein was added to the upper wells. Following 1 h incubation time Transwells were removed and the activity of horsh radish peroxidase that penetrated the endothelial cell monolayer was measured in the lower wells with the 3,3′, 5,5′-tetramethylbenzidine liquid substrate system from Sigma (Taufkirchen, Germany).
In parallel, compounds according to the invention can inhibit Thrombin-induced permeability of HUVEC monolayers for horsh radish peroxidase (HRP) as a macromolecule marker. […] The concentration-dependent inhibition of HRP permeability at different concentrations was assessed from the percent inhibition in the presence and absence of the PDE2 inhibitors and in the presence of 1 μM RP73401, 10 μM Motapizone and 100 nM ANP.
HUVEC cells on 3 μm polycarbonate filters (Transwells) were preincubated with 1 μM RP73401 (to block PDE4) and 10 μM Motapizone (to block PDE3), 1 mM SNP or 100 nM ANP and 1 μM of test sample over 15 min and then stimulated with 1 U/ml thrombin. HRP passage into the lower wells was assessed after 60 min.
For the compound `CC1CC(=O)NN=C1c1cc(-n2ccnc2)cs1` (centres unmarked) [Motapizone, reference compound], the “Thrombin-induced increase of HRP permeability (hyperpermeability)” value was “completely abolished; also recorded: completely blocked”.
The same measure, in the same setting: then `COc1ccc(C(=O)Nc2c(Cl)cncc2Cl)cc1OC1CCCC1` [RP73401, reference compound], with “completely abolished; also recorded: completely blocked”.

The same data set, now with this note: ANP (100 nM) or SNP (1 mM) in additional presence of 10 μM Motapizone and 1 μM RP73401.
Regarding “ANP: cGMP generator used to augment cGMP and activate PDE2 (SLRRSSCFGGRMDRIGAQSGLGCNSFRY; ends and bridges not checked; cysteine pairing not given here; UniProt P01160 124-151, looked up) [reference compound]”, the “Effect on the inhibition of permeability by PDE3 and 4 inhibition” value is listed as “partially reversed”.

The same data set, now with this note: Homo sapiens, 1 h; HUVEC, 1 μM RP73401, 10 μM Motapizone, 1 mM SNP or 100 nM ANP, 1 U/ml thrombin, HRP passage after 60 min; read-out: Inhibition of SNP- or ANP-induced permeability, −log IC50 (converted).
On to `COCC(=O)Nc1ccc(Nc2nn3c(-c4ccc(OC)cc4)nnc3c3ccccc23)cc1` [Compound 4, 2-Methoxy-N-{4-[3-(4-methoxy-phenyl)-[1,2,4]triazolo[3,4-a]phthalazin-6-ylamino]-phenyl}-acetamide], for which the IC50 is 2 to 63.1 nM.
On the same count and under the same terms, then `COCCC(=O)Nc1ccc(Nc2nn3c(-c4ccc(OC)cc4)nnc3c3ccccc23)cc1` [Compound 5, 3-Methoxy-N-{4-[3-(4-methoxy-phenyl)-[1,2,4]triazolo[3,4-a]phthalazin-6-ylamino]-phenyl}-propionamide], with 2 to 63.1 nM; and `COc1ccc(-c2nnc3c4ccccc4c(Nc4ccc(NC(=O)c5c[nH]cn5)cc4)nn23)cc1` [Compound 11, 1H-Imidazole-4-carboxylic acid {4-[3-(4-methoxy-phenyl)-[1,2,4]triazolo[3,4-a]phthalazin-6-ylamino]-phenyl}-amide], with 2 to 63.1 nM.
The same measure, in the same setting: then `COc1ccc(-c2nnc3c4ccccc4c(Nc4ccc(NC(=O)C5CCCCN5)cc4)nn23)cc1` (centres unmarked) [Compound 12, Piperidine-2-carboxylic acid {4-[3-(4-methoxy-phenyl)-[1,2,4]triazolo[3,4-a]phthalazin-6-ylamino]-phenyl}-amide], with 2 to 63.1 nM.
Regarding `COc1ccc(-c2nnc3c4ccccc4c(Nc4ccc(NC(=O)C(F)(F)F)cc4)nn23)cc1` [Compound 17, 2,2,2-Trifluoro-N-{4-[3-(4-methoxy-phenyl)-[1,2,4]triazolo[3,4-a]phthalazin-6-ylamino]-phenyl}-acetamide], the IC50 was 2 to 63.1 nM.
The same measure, in the same setting: then `COc1ccc(-c2nnc3c4ccccc4c(Nc4ccc(NC(=O)C5CC5)cc4)nn23)cc1` [Compound 18, Cyclopropanecarboxylic acid {4-[3-(4-methoxy-phenyl)-[1,2,4]triazolo[3,4-a]phthalazin-6-ylamino]-phenyl}-amide], with 2 to 63.1 nM.
Same read-out and setting: next, `COc1ccc(-c2nnc3c4ccccc4c(Nc4ccc(NC(=O)c5ccoc5)cc4)nn23)cc1` [Compound 21, Furan-3-carboxylic acid {4-[3-(4-methoxy-phenyl)-[1,2,4]triazolo[3,4-a]phthalazin-6-ylamino]-phenyl}-amide]: 2 to 63.1 nM.
With `COc1ccc(-c2nnc3c4ccccc4c(Nc4ccc(NC(=O)CN5CCOCC5)cc4)nn23)cc1` [Compound 25, N-{4-[3-(4-Methoxy-phenyl)-[1,2,4]triazolo[3,4-a]phthalazin-6-ylamino]-phenyl}-2-morpholin-4-yl-acetamide], the IC50 was 2 to 63.1 nM.
As for `O=C(Nc1ccc(Nc2nn3c(-c4ccccc4Br)nnc3c3ccccc23)cc1)C1CCCCN1` (centres unmarked) [Compound 30, Piperidine-2-carboxylic acid {4-[3-(2-bromo-phenyl)-[1,2,4]triazolo[3,4-a]phthalazin-6-ylamino]-phenyl}-amide], the IC50 was 2 to 63.1 nM.
Turning to `COc1ccc(-c2nnc3c4ccccc4c(Nc4cccc(NC(=O)C5CC5)c4)nn23)cc1` [Compound 38, Cyclopropanecarboxylic acid {3-[3-(4-methoxy-phenyl)-[1,2,4]triazolo[3,4-a]phthalazin-6-ylamino]-phenyl}-amide], the IC50 is 2 to 63.1 nM.
For the compound `COc1ccc(-c2nnc3c4ccccc4c(Nc4cccc(NC(=O)C5CCN(C(C)=O)CC5)c4)nn23)cc1` [Compound 54, 1-Acetyl-piperidine-4-carboxylic acid {3-[3-(4-methoxy-phenyl)-[1,2,4]triazolo[3,4-a]phthalazin-6-ylamino]-phenyl}-amide], the IC50 is 2 to 63.1 nM.
For the compound `CNC(=O)c1ccc(Nc2nn3c(-c4ccc(OC)cc4)nnc3c3ccccc23)cc1` [Compound 85, 4-[3-(4-Methoxy-phenyl)-[1,2,4]triazolo[3,4-a]phthalazin-6-ylamino]-N-methyl-benzamide], the concentration for half-maximal inhibition (IC50) was 2 to 63.1 nM.
